{"source": "PubChem BioAssay (NCI)", "assay_in_all_cases": "NCI tumour cell line growth inhibition, 48 h", "key": {"U251 CNS": {"system": "U251 CNS"}, "HOP-92 NSCLC": {"system": "HOP-92 NSCLC"}, "SN12C renal": {"system": "SN12C renal"}, "TK-10 renal": {"system": "TK-10 renal"}, "MDA-MB-435": {"system": "MDA-MB-435"}, "HCT-116 colon": {"system": "HCT-116 colon"}, "MCF7 breast": {"system": "MCF7 breast"}, "NCI-H226 lung": {"system": "NCI-H226 lung"}, "SF-268 CNS": {"system": "SF-268 CNS"}, "SK-MEL-28 melanoma": {"system": "SK-MEL-28 melanoma"}, "SR leukemia": {"system": "SR leukemia"}, "CCRF-CEM leukemia": {"system": "CCRF-CEM leukemia"}, "KM12 colon": {"system": "KM12 colon"}, "SK-MEL-5 melanoma": {"system": "SK-MEL-5 melanoma"}, "A498 renal": {"system": "A498 renal"}, "RPMI-8226 leukemia": {"system": "RPMI-8226 leukemia"}, "M14 melanoma": {"system": "M14 melanoma"}, "PC-3 prostate": {"system": "PC-3 prostate"}, "SNB-19 CNS": {"system": "SNB-19 CNS"}, "HS 578T breast": {"system": "HS 578T breast"}, "NCI/ADR-RES ovarian": {"system": "NCI/ADR-RES ovarian"}, "EKVX NSCLC": {"system": "EKVX NSCLC"}, "OVCAR-4 ovarian": {"system": "OVCAR-4 ovarian"}, "CAKI-1 renal": {"system": "CAKI-1 renal"}, "SF-539 CNS": {"system": "SF-539 CNS"}, "SW-620 colon": {"system": "SW-620 colon"}, "HOP-62 NSCLC": {"system": "HOP-62 NSCLC"}, "COLO 205 colon": {"system": "COLO 205 colon"}, "OVCAR-5 ovarian": {"system": "OVCAR-5 ovarian"}, "A549 NSCLC": {"system": "A549 NSCLC"}}, "note": "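These data come from cells grown in 96-well plates and exposed to compound for 48 hours at five concentrations. GI50: concentration for 50% inhibition of growth. TGI: total growth inhibition.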"}
{"smiles": "CC1(C)CC[C@]2(C(=O)O)CC[C@]3(C)C(=CCC4[C@@]5(C)C[C@@H](O)[C@@H]6OC(c7ccccc7Br)OC[C@@]6(C)C5CC[C@]43C)C2C1", "note": "(some centres undefined)", "values": [{"measurement": "GI50", "setting": "U251 CNS", "result": 3.08, "unit": "µM"}, {"measurement": "TGI", "setting": "U251 CNS", "result": 14.3, "unit": "µM"}, {"measurement": "GI50", "setting": "HOP-92 NSCLC", "result": 4.72, "unit": "µM"}, {"measurement": "TGI", "setting": "HOP-92 NSCLC", "result": 37.1, "unit": "µM"}, {"measurement": "GI50", "setting": "SN12C renal", "result": 3.14, "unit": "µM"}, {"measurement": "TGI", "setting": "SN12C renal", "result": 17.6, "unit": "µM"}, {"measurement": "GI50", "setting": "TK-10 renal", "result": 4.55, "unit": "µM"}, {"measurement": "TGI", "setting": "TK-10 renal", "result": "> 100", "unit": "µM"}, {"measurement": "GI50", "setting": "MDA-MB-435", "result": 3.95, "unit": "µM"}, {"measurement": "TGI", "setting": "MDA-MB-435", "result": 23.5, "unit": "µM"}, {"measurement": "GI50", "setting": "HCT-116 colon", "result": 2.65, "unit": "µM"}, {"measurement": "TGI", "setting": "HCT-116 colon", "result": 11.1, "unit": "µM"}, {"measurement": "GI50", "setting": "MCF7 breast", "result": 3.29, "unit": "µM"}, {"measurement": "TGI", "setting": "MCF7 breast", "result": "> 100", "unit": "µM"}, {"measurement": "GI50", "setting": "NCI-H226 lung", "result": 3.52, "unit": "µM"}, {"measurement": "TGI", "setting": "NCI-H226 lung", "result": 34.9, "unit": "µM"}, {"measurement": "GI50", "setting": "SF-268 CNS", "result": 3.45, "unit": "µM"}, {"measurement": "TGI", "setting": "SF-268 CNS", "result": "> 100", "unit": "µM"}, {"measurement": "GI50", "setting": "SK-MEL-28 melanoma", "result": 4.69, "unit": "µM"}, {"measurement": "TGI", "setting": "SK-MEL-28 melanoma", "result": 37.2, "unit": "µM"}, {"measurement": "GI50", "setting": "SR leukemia", "result": 4.15, "unit": "µM"}, {"measurement": "TGI", "setting": "SR leukemia", "result": "> 100", "unit": "µM"}, {"measurement": "GI50", "setting": "CCRF-CEM leukemia", "result": 3.26, "unit": "µM"}, {"measurement": "TGI", "setting": "CCRF-CEM leukemia", "result": 35.4, "unit": "µM"}, {"measurement": "GI50", "setting": "KM12 colon", "result": 3.91, "unit": "µM"}, {"measurement": "TGI", "setting": "KM12 colon", "result": 26.2, "unit": "µM"}, {"measurement": "GI50", "setting": "SK-MEL-5 melanoma", "result": 3.6, "unit": "µM"}, {"measurement": "TGI", "setting": "SK-MEL-5 melanoma", "result": 13.9, "unit": "µM"}, {"measurement": "GI50", "setting": "A498 renal", "result": 3.28, "unit": "µM"}, {"measurement": "TGI", "setting": "A498 renal", "result": 12.6, "unit": "µM"}, {"measurement": "GI50", "setting": "RPMI-8226 leukemia", "result": 2.66, "unit": "µM"}, {"measurement": "TGI", "setting": "RPMI-8226 leukemia", "result": 71.8, "unit": "µM"}, {"measurement": "GI50", "setting": "M14 melanoma", "result": 3.88, "unit": "µM"}, {"measurement": "TGI", "setting": "M14 melanoma", "result": 17.7, "unit": "µM"}, {"measurement": "GI50", "setting": "PC-3 prostate", "result": 3.99, "unit": "µM"}, {"measurement": "TGI", "setting": "PC-3 prostate", "result": "> 100", "unit": "µM"}, {"measurement": "GI50", "setting": "SNB-19 CNS", "result": 3.82, "unit": "µM"}, {"measurement": "TGI", "setting": "SNB-19 CNS", "result": "> 100", "unit": "µM"}, {"measurement": "GI50", "setting": "HS 578T breast", "result": 2.82, "unit": "µM"}, {"measurement": "TGI", "setting": "HS 578T breast", "result": 14.9, "unit": "µM"}, {"measurement": "GI50", "setting": "NCI/ADR-RES ovarian", "result": 3.17, "unit": "µM"}, {"measurement": "TGI", "setting": "NCI/ADR-RES ovarian", "result": "> 100", "unit": "µM"}, {"measurement": "GI50", "setting": "EKVX NSCLC", "result": 2.68, "unit": "µM"}, {"measurement": "TGI", "setting": "EKVX NSCLC", "result": 36.5, "unit": "µM"}, {"measurement": "GI50", "setting": "OVCAR-4 ovarian", "result": 3.61, "unit": "µM"}, {"measurement": "TGI", "setting": "OVCAR-4 ovarian", "result": "> 100", "unit": "µM"}, {"measurement": "GI50", "setting": "CAKI-1 renal", "result": 3.16, "unit": "µM"}, {"measurement": "TGI", "setting": "CAKI-1 renal", "result": "> 100", "unit": "µM"}, {"measurement": "GI50", "setting": "SF-539 CNS", "result": 3.59, "unit": "µM"}, {"measurement": "TGI", "setting": "SF-539 CNS", "result": 12.8, "unit": "µM"}, {"measurement": "GI50", "setting": "SW-620 colon", "result": 3.43, "unit": "µM"}, {"measurement": "TGI", "setting": "SW-620 colon", "result": 30.9, "unit": "µM"}, {"measurement": "GI50", "setting": "HOP-62 NSCLC", "result": 3.9, "unit": "µM"}, {"measurement": "TGI", "setting": "HOP-62 NSCLC", "result": 22.4, "unit": "µM"}, {"measurement": "GI50", "setting": "COLO 205 colon", "result": 1.99, "unit": "µM"}, {"measurement": "TGI", "setting": "COLO 205 colon", "result": 4.89, "unit": "µM"}, {"measurement": "GI50", "setting": "OVCAR-5 ovarian", "result": 4.08, "unit": "µM"}, {"measurement": "TGI", "setting": "OVCAR-5 ovarian", "result": 25, "unit": "µM"}, {"measurement": "GI50", "setting": "A549 NSCLC", "result": 2.11, "unit": "µM"}]}
